We go through five molecules from patent publication US20180135010A1, “ISOLATION AND LONG-TERM CULTURING OF ESTROGEN RECEPTOR-POSITIVE HUMAN BREAST EPITHELIAL CELLS” (University of Copenhagen, priority 2015, published 2018).

The test system of assay [1] is hTERT/shp16 transduced ER^pos HBEC. The assay can be described thus: qRT-PCR of ESR and PGR after 7 days exposure to inhibitors. The note with it: RepSox alone versus combination with SB431542. The assay is classed as cell-based, human. How it is done: FIG. 12: PCR analysis of human estrogen receptor signaling. (a) Using a commercially available PCR array containing 84 genes involved in ER activation and its response, qRT-PCR was conducted with RNA samples of ER^pos HBEC with or without TGFβ[…]. Among them, 20 genes (some of which are labeled in the plot) were highly expressed in the presence of TGFβ[…]. […] The black line indicates no difference between samples, while the pink lines indicate a two-fold change in gene expression. Two biological replicates were run I qRT-PCT with duplicates of each. […] Bars indicate the fold difference of the relative gene expression and error bars represent SD of triplicates in qPCR.
(In general: Real-time PCR tracks product formation cycle by cycle.)

Assay [2] relates to CD166^high-derived cells. Briefly: Long-term growth / population doublings on passaging. The format is cell-based, human. As to conditions: in the absence of RepSox (SB431542 alone). An excerpt:
For growth experiments cultures initially seeded at 6400 cells/cm^2 and grown for fifteen days in primary culture in TGFβR2i or with SB431542 alone. Next, the cultures were trypsinized and seeded at 4000 cells/cm^2 in triplicate cultures, and subsequently passaged at the same density before the cultures reached confluency. Parallel cultures were stained to assess Ks20.8, ER and PR expression status. The number of cells was quantified manually using a counting chamber. […] Population doublings were calculated as n=3.32(log UCY—log 1)+X, where n=population doubling, UCY=cell yield, 1=inoculum number, X=population doubling rate of inoculum. To determine whether continuous TGFβR2i culture was needed to sustain ER and K8 expression, cells in the sixth passage were switched to FAD2 and the number of ER^pos cells (n=3×100) was compared to parallel TGFβR2i cultures at day three and five.

The test system of assay [3] is CD166^high cells. Briefly: Induction of ER, K8 and luminal genes by TGF-β signaling inhibitors (qPCR, Western blotting, staining). The assay is classed as cell-based, human. How it is done:
To test the specificity of the effect of TGFβ[…], in some experiments SB431542 alone or the double concentration of SB431542 was used instead of TGFβ[…] or RepSox was replaced by another TGF-β type I receptor activin receptor-like kinase ALKS inhibitor, SD208 (1 μM, Tocris Bioscience). The vehicle, dimethyl sulfoxide (Sigma Aldrich), was included in all experiments added in appropriate concentrations for control cultures. Gentamycin (50 μg/ml, Biological Industries) was added to the cultures for one week after sorting, otherwise antibiotics were not included. […] In order to quantify cDNA concentration represented by cycle threshold (Ct) values, Cts were determined at the initial period of exponential amplification in triplicates and the different PCR runs were adjusted by inter-run calibrators (Bio-Rad CFX manager 3.0). Each gene expression level was to the mean of four reference gene expressions (GAPDH, HPRT1, TBP, and TFRC). The qRT-PCR data were then visualized as a heatmap using the statistical programi R or as a bar graph using the values calculated by the 2^-ΔΔCt method (Livak et al., 2001). […] Whole cell lysates were prepared for extraction by incubation in RIPA lysis buffer for 30 min at 4° C. with protease inhibitor cocktail (P8340, Sigma) and phosphatase inhibitor cocktail (Sigma, P5726). Protein were separated by a 4 12% Novex® Bis-Tris pre-cast polyacrylamide gradient gel (Life technologies) and transferred to a PVDF membrane using iBlot® dry blotting system (Life technologies). Molecular weight was indicated by using a pre-stained protein ladder (SM0671, Fermentas). […] Secondary antibodies conjugated with horseradish peroxidase (DAKO) were incubated for one hour at room temperature. Western blots were visualized using enhanced chemiluminescence solution ([…] 32106, Thermo Scientific) and a chemi-luminescence imager (Amersham Image 600, GE Healthcare life sciences).

Assay [4] has as its system ER^pos cells. Briefly: Proliferative response to estrogen without EGF. The note with it: early passage cultures, 10^−8 M β-estradiol versus vehicle, four days. The format is cell-based, human. Here is the method: To test the proliferative response to estrogen, ER^pos cells in TGFβR2i culture were seeded in second passage with 4000 cells/cm^2 in TGFβR2i with 25 μM RepSox and without EGF, supplemented with estrogen (10^−8 M, β-estradiol, E2758, Sigma-Aldrich) and cultured for up to 13 days with medium change every other day. A primary culture from another biopsy (P959) was cultured 27 days in the presence of estrogen and without EGF before splitting. The cells were passaged at 4000 cells/cm^2 in triplicate cultures with estrogen or vehicle (96% ethanol). At day four the cultures were trypsinized and quantified using a counting chamber.

Assay [5] has as its system ER^pos cells. The assay can be described thus: Response to estrogen on confluent fibroblast feeders. The assay is classed as cell-based, human. The note with it: on confluent fibroblast feeders in TGFβR2i, day eight. How it is done: To assess whether the response of ER^pos cells to estrogen was modulated by the presence of fibroblasts, second or third passage ER^pos cells, with or without omission of EGF in the previous passage, were plated at a density of 5600 cells/cm^2 on confluent fibroblast feeders in triplicate culture. The following day, the culture medium was switched to TGFβR2i with estrogen or vehicle. […] At day eight, the cultures were trypsinized and the total cell number was quantified. Whether a continuous lack of EGF influenced the response to estrogen was tested in a similar set-up, where EGF was omitted from the medium during the entire experimental period.

For assay [6], the system named is ER^pos cells. Briefly: qRT-PCR of PGR and GREB1 after estrogen. The format is cell-based, human. As to conditions: long-term exposure to estrogen.
Assay [7] has as its system ER^pos cells. Briefly: PR protein staining after estrogen. The format is cell-based, human. As to conditions: 10^−8 M β-estradiol, absence of EGF. Here is the method:
Cryostat sections, smears of sorted cells and monolayer cultures were prepared and stained by immunoperoxidase or immunofluorescence as previously described (Petersen et al. 1988, Villadsen et al. 2007, Rønnov-Jessen et al. 1992). Cellular smears for ER staining were fixed in 10% formalin for 10 min, followed by 5 min in ice-cold methanol:acetone (1:1), and incubated over night with anti-ER (Sp1, 1:10) at 4° C., followed by incubation for 30 min with Alexa Fluor 568 goat-anti rabbit IgG (Invitrogen). […] Immunofluorescence and peroxidase stainings were evaluated, quantified and photographed using a laser-scanning microscope (LSM 510; Carl Zeiss Microlmaging, Inc.) and brightfield microscopes (Laborlux S or DM5500B, Leica), respectively. For quantification of ER, K8, K19 and p63, nuclei were counterstained with hematoxylin and counted in randomly selected fields using an ocular grid and given as the percentage of stained cells of a total of 1000 cells evaluated with a 25 times objective.
As an ultimate test for a physiologically relevant ER expression we decided to assess the effect of added cognate ligand, i. e. estrogen (β-estradiol). […] Early passage cultures were exposed to estrogen or vehicle, and after four days the cell number was quantified. […]

Assay [8] deals with luminal cells. The assay can be described thus: Screening assay for normal morphogenic behavior (co-culture on fibroblast feeder in BBMYAB). The assay is classed as cell-based, human. As to conditions: E2 10^−8 M. From the text:
Within two weeks luminal cells grow up from single cells to form polarized structures, either comprising luminal cells only or luminal cells surrounded by a layer of myoepithelial cells, reminiscent of their organization in vivo.

In assay [9] the test system is ER and PR. Briefly: Substitution of EGF with amphiregulin in the culture medium. The assay is classed as cell-based. As to conditions: EGF substituted with amphiregulin.

For `Cc1cccc(-c2[nH]ncc2-c2ccc3ncccc3n2)n1` [RepSox], the “induction of ER or PR” value in assay [1] is listed as “not as effective in inducing ER or PR as in combination with SB431542”. Besides, in [2], the expansion on passaging entry is recorded as “could not be expanded beyond fourth passage”.
In the case of `NC(=O)c1ccc(-c2nc(-c3ccc4c(c3)OCO4)c(-c3ccccn3)[nH]2)cc1` [SB431542], in assay [3] (SB431542 alone in FAD2), the “ER expression at the mRNA level” value is given as “capable of inducing increased expression of ER at the mRNA level”. The “induction of K8 and ER” value in assay [3] (twice the concentration of SB431542 instead of TGFβR2i) is “insufficient to induce K8 and ER”.
For `Fc1ccc(Cl)cc1-c1nc(Nc2ccncc2)c2nccnc2n1` [SD208], in [3] (RepSox replaced by SD208), the “induction of K8 and ER” value was “insufficient to induce K8 and ER”.
Regarding β-estradiol [estrogen], the cell number result in assay [4] is on record as “significantly higher cell numbers”. Besides, in assay [5], the cell number result is reported as “significant increase in cell number”. For the same molecule, the “expression of PGR and GREB1” value in assay [6] was “increased expression of PGR and GREB1”. Moreover, in assay [7], the PR protein expression entry was “higher focal expression of PR protein”. Also, in assay [8], the epithelial colony size result is “larger epithelial colonied are formed”; the “estrogen receptor and progesterone receptor expression” value was “down-regulation of its receptor and induction of the downstream progesterone receptor”.

B1: amphiregulin: EGF-like compound substituted for EGF in the culture medium (protein, UniProt P15514 101-187, looked up)
Amphiregulin: SVRVEQVVKPPQNKTESENTSDKPKRKKKGGKNGKNRRNRKKKNPCNAEFQNFCIHGECKYIEHLEAVTCKCQQEYFGERCGEKSMK
modifications: Amphiregulin
notes: EGF-like compound substituted for EGF in the culture medium
As to B1, in assay [9], the “level of ER and PR” value is “a higher level of ER and PR is observed”.
